Four molecules from ChEMBL document CHEMBL1151523, “Synthesis of ()-6-(3-aminopropyloxy)methyl-4-demethoxy-6, 7-dideoxy-daunomycinone, a new dna intercalator related to anthracyclines” (Bioorg Med Chem Lett, 1995) can be followed below.

Holding throughout (assay type): nucleic-acid assay, Bos taurus
In test [1] the test system is Nucleic Acid. The experiment in a line: Binding affinity to Calf thymus DNA type XV; value ranges from 4E6 - 6E6 M-1.
The subject of test [2] is Nucleic Acid. The experiment in a line: Binding affinity to Calf thymus DNA type XV; value ranges from 2E6 - 4E6 M-1.
Test [3] concerns Nucleic Acid. Put plainly: Binding affinity to Calf thymus DNA type XV; value ranges from 1E4 - 3E4 M-1.
Test [4] relates to Nucleic Acid. Put plainly: Binding affinity to Calf thymus DNA type XV.

In turn, `COc1cccc2c1C(=O)c1c(O)c3c(c(O)c1C2=O)C[C@@](O)(C(C)=O)C[C@@H]3O[C@H]1C[C@H](N)[C@H](O)[C@H](C)O1.Cl` [DAUNORUBICIN HYDROCHLORIDE] registered a Ka in the test on Nucleic Acid [1] of 4000000 M⁻¹.
`COc1cccc2c1C(=O)c1c(O)c3c(c(O)c1C2=O)C[C@@](O)(C(=O)CO)C[C@@H]3O[C@H]1C[C@H](N)[C@H](O)[C@H](C)O1` [DOXORUBICIN]: in the test with Nucleic Acid [2], the Ka was determined as 2000000 M⁻¹.
Consider `COc1cccc2c1C(=O)c1c(O)c3c(c(O)c1C2=O)C[C@@](O)(C(C)=O)C[C@@H]3O` [DAUNOMYCINONE], for which the Ka in the test with Nucleic Acid [3] was found to be 10000 M⁻¹.
As to `CC(=O)[C@@]1(O)CCc2c(c(O)c3c(c2COCCCN)C(=O)c2ccccc2C3=O)C1.Cl`, the Ka in the test on Nucleic Acid [4] worked out at 61000 M⁻¹.
